The subject of one test is S. vitulinus. Kind of test: Oxford cup assay, zone of inhibition. The class given is cell-based, Staphylococcus vitulinus. The conditions noted are these: Mammaliicoccus vitulinus. Here is the method:
(§1) The Oxford cup assays were carried out to evaluate the antibacterial activities against the above-mentioned six bacterial strains. The zones of inhibition for two concentrations (320 and 160 μg/mL) of the synthetic compounds and tiamulin fumarate were measured. The results of Oxford cup assay correspond with that obtained by agar dilution method (MICs) as a whole.
(§2) The procedure for Oxford cup assays was the same as that previously reported. Briefly, inoculums were prepared in 0.9% saline using McFarland standard and spread uniformly on nutrient agar plates. The 320 and 160 µg/mL of all the tested compounds were added individually into the Oxford cups that were placed at equal distances above the agar surfaces. The zone of inhibition for each concentration was measured after a 24–36 h incubation at 37 °C. The same procedure was repeated in triplicate.

Another test has as its system E. coli. Kind of test: Oxford cup assay, zone of inhibition. The class given is cell-based. The note with it: Escherichia coli. The procedure: as §1, §2
Test [1] relates to S. aureus. Kind of test: Oxford cup assay, zone of inhibition. The class given is cell-based. The note with it: Staphylococcus aureus. The procedure: as §1, §2
For another test, the system named is S. haemolyticus. Kind of test: Oxford cup assay, zone of inhibition. The class given is cell-based. The conditions noted are these: Staphylococcus haemolyticus. Here is the method:
as §1, §2

Another test has as its system S. warneri. Kind of test: Oxford cup assay, zone of inhibition. The class given is cell-based. The conditions noted are these: Staphylococcus warneri. Here is the method:
as §1, §2

Test [2] relates to MRSA. Kind of test: Oxford cup assay, zone of inhibition. The class given is cell-based. The conditions noted are these: Staphylococcus aureus. The procedure: as §1, §2
The test system of test [3] is S. aureus. The experiment in a line: Inhibition of short-term bacterial growth (absorbance at 450 nm). The note with it: Staphylococcus aureus, 3.5 h, read-out: GI50 S. aureus growth. The class given is cell-based. Here is the method:
(§3) Compound 3, being the best antibacterial derivative, was chosen for further evaluation on its antibacterial effect to inhibit short-term S. aureus and MRSA growth (Figure 2). This includes the GI50 of tiamulin fumarate for S. aureus and MRSA.
(§4) The inhibition activities of test compounds were evaluated by measuring the absorbance of the bacterial suspension. In brief, inoculums were prepared from blood slants and adjusted to approximately 10^6 CFU/mL in Muellere-Hinton broth. The 0.0625, 0.125, 0.25, 0.5, 1, and 2 µM of tested compounds were prepared and added to the prepared inoculums. A sample of inoculum with no compound was used as control. The absorbance of bacterial suspension at 450 nm was measured using an UV spectrophotometer after 3.5 h of incubation, and the inhibition was calculated as 1 − (A^P/A^0), where A^p and A^0 are the absorbance of bacterial suspension in the presence and absence of compounds, respectively. The same procedure was independently repeated in triplicate.

Test [4] has as its system MRSA. The description is as above. The class given is cell-based. The conditions noted are these: Staphylococcus aureus, 3.5 h incubation, Mueller-Hinton broth. The procedure: as §3, §4
The test system of test [5] is Staphylococcus haemolyticus (S. haemolyticus). Kind of test: MIC testing, agar dilution method. The class given is cell-based. The note with it: 36.5 °C, 24–48 h. From the text:
(§5) The synthesized pleuromutilin derivatives 3 and 4a–l, with tiamulin fumarate used a as reference drug, were screened for their in vitro antibacterial activity against Escherichia coli (E. coli), Staphylococcus aureus (S. aureus), Methicillin-resistant Staphylococcus aureus (MRSA), Staphylococcus vitulinus (S. vitulinus), Staphylococcus warneri (S. warneri), and Staphylococcus haemolyticus (S. haemolyticus). The antibacterial activities are reported in Table 1 as the minimum inhibitory concentration (MIC) using the agar dilution method. The MICs of the 13 new pleuromutilin derivatives in vitro against E. coli ranged from 10 to 80 μg/mL; against S. aureus, MRSA, S. vitulinus, S. warneri, and S. haemolyticus ranged from 0.156 to 40 μg/mL, respectively.
(§6) The MIC for the synthesized compounds (3 and 4a–l) and tiamulin fumarate used as a reference drug were determined using the agar dilution method according to the National Committee for Clinical Laboratory Standards (NCCLS). Tested compounds were dissolved in 25%–40% DMSO to a solution with a concentration of 1280 µg/mL, whereas tiamulin fumarate was directly dissolved in 10 mL of distilled water at the same concentration as the tested compounds. All the solutions were then diluted twofold with sterile water to provide 11 dilutions (final concentration is 0.625 µg/mL). A 2 mL volume of the 2-fold serial dilution of each test compound/drug was incorporated into 18 mL of hot Muellere-Hinton agar medium. Inoculums, including five Gram (+), S. aureus, MRSA, S. vitulinus, S. warneri, S. haemolyticus, and one Gram (−), E. coli were prepared from blood slants and adjusted to approximately 10^5–10^6 CFU/mL with sterile saline (0.90% NaCl). A 10 µL amount of bacterial suspension was spotted onto Muellere-Hinton agar plates containing serial dilutions of the compounds/drug. The plates were incubated at 36.5 °C for 24–48 h. The same procedure was repeated in triplicate.

Test [6] relates to Staphylococcus aureus (S. aureus). Kind of test: MIC testing, agar dilution method. The class given is cell-based. The note with it: 36.5 °C, 24–48 h.
Description: as §5, §6
In general terms: In agar dilution the substance is mixed into plates at graded concentrations.

Test [7] deals with Staphylococcus warneri (S. warneri). Kind of test: MIC testing, agar dilution method. The conditions noted are these: 36.5 °C, 24–48 h. The class given is cell-based.
Description: as §5, §6

The test system of test [8] is Escherichia coli (E. coli). The experiment in a line: MIC testing, agar dilution method. The class given is cell-based. The note with it: 36.5 °C, 24–48 h.
Description: as §5, §6

Test [9] deals with Staphylococcus vitulinus (S. vitulinus). Kind of test: MIC testing, agar dilution method. The class given is cell-based. The conditions noted are these: Mammaliicoccus vitulinus, 36.5 °C, 24–48 h.
Description: as §5, §6

For test [10], the system named is Methicillin-resistant Staphylococcus aureus (MRSA). Kind of test: MIC testing, agar dilution method. The class given is cell-based. The note with it: 36.5 °C, 24–48 h.
Description: as §5, §6

Where a name gives a salt, the structure may show the parent alone.

As a reminder, the zone of inhibition is the extent of the growth-free halo in a diffusion test. A word on the GI50: it is the concentration giving 50% growth inhibition. One may read the MIC as the lowest concentration that inhibits growth of the organism. Read a high MIC as a need for much substance.

Regarding `C=C[C@]1(C)C[C@@H](OC(=O)CSCCN(CC)CC)[C@]2(C)[C@H](C)CC[C@]3(CCC(=O)[C@H]32)[C@@H](C)[C@@H]1O` [Tiamulin, tiamulin fumarate, reference compound], the zone of inhibition at 160 µg/mL in the test on S. vitulinus (160 µg/mL) amounted to 18.6 mm; with E. coli (160 µg/mL) it was 25.8 mm; with S. aureus [1] (160 µg/mL) it was 25.1 mm; with S. haemolyticus (160 µg/mL), 28.8 mm; in the test on S. warneri (160 µg/mL) it was 22.4 mm; in the test on MRSA [2] (160 µg/mL), 28.1 mm. For the same compound, the zone of inhibition at 320 µg/mL in the test on S. vitulinus (320 µg/mL) turned out to be 30.9 mm; in the test with E. coli (320 µg/mL), 27.1 mm; in the test on S. aureus [1] (320 µg/mL), 28.2 mm; in the test with S. haemolyticus (320 µg/mL), 31.5 mm; in the test on S. warneri (320 µg/mL), 30.5 mm; with MRSA [2] (320 µg/mL) it was 30.5 mm. For the same compound, the GI50 turned out to be 98.3 nM in the test with S. aureus [3] and 254 nM in the test with MRSA [4]. Further, the minimal inhibitory concentration (MIC) in test [5] came out at 0.156 µg/mL; in [6] it was 0.156 µg/mL; in [7], 0.156 µg/mL; in [8] it was 1.25 µg/mL; in test [9], 0.156 µg/mL; in test [10] it was 0.156 µg/mL.

These data come from publication PMC6273978, “Synthesis and Pharmacological Evaluation of Novel Pleuromutilin Derivatives with Substituted Benzimidazole Moieties” (Molecules, 2016).
